The values that follow come from ChEMBL document CHEMBL5120914, “An O-Benzyl Phosphonamidate Prodrug of Tenofovir for the Treatment of Hepatitis B Virus Infection” (J Med Chem, 2022).

Data set [1] has as its system Hepatitis B virus. The data set is described as follows: Antiviral activity against Hepatitis B virus infected in human HepG2.2.15 cells assessed as inhibition of viral DNA replication at 1 uM measured after 6 days by FQ-PCR analysis relative to control. Type of data set: functional, HepG2 2.2.15. Further details: scale not given: the % may be the effect or the level left. The conditions noted are these: time 6 day.

Data set [2] is described as follows: Cytotoxicity against human HepG2 cells assessed as reduction in cell growth incubated for 3 days by MTT assay. The conditions noted are these: time 3 day. Type of data set: toxicity, cell-based. Background: Tetrazolium dyes change colour on reduction, which living cells bring about.
Data set [3] concerns Hepatitis B virus. The data set is described as follows: Antiviral activity against Hepatitis B virus infected in human HepG2.2.15 cells assessed as inhibition of viral DNA replication measured for 9 days by FQ-PCR analysis. The conditions noted are these: HepG2 2.2.15, 216 h. Type of data set: functional, organism-based.
Another data set deals with HepG2. The data set is described as follows: Cytotoxicity against human HepG2 cells assessed as reduction in cell growth upto 500 uM incubated for 3 days by MTT assay. Type of data set: toxicity, cell-based. The conditions noted are these: hepg2, 72 h, time 3 day.
For data set [4], the system named is Hepatitis B virus. The data set is described as follows: Antiviral activity against Hepatitis B virus infected in human HepG2.2.15 cells assessed as inhibition of viral DNA replication at 20 uM measured after 6 days by FQ-PCR analysis relative to control. It is filed as functional, HepG2 2.2.15. Set-up: scale not given: the % may be the effect or the level left. The conditions noted are these: time 6 day.

The test system of data set [5] is Hepatitis B virus. The data set is described as follows: Antiviral activity against Hepatitis B virus infected in ig dosed duck assessed as reduction in viral DNA replication in liver administered once daily for first 10 days followed by increase in dose administered for another 18 days. Type of data set: functional, organism-based. The conditions noted are these: dose 10-40 mg/kg, time 28.0 day, DDE = dose-dependent effect.

The structures appear in SMILES notation.

By CC50 is commonly meant the concentration giving 50% cytotoxicity. For `CC(C)OC(=O)[C@H](C)NP(=O)(CO[C@H](C)Cn1cnc2c(N)ncnc21)OCc1ccccc1` (stereo not given in full), in the data set on Hepatitis B virus [1], the Activity is 47.14%. Further, the half-maximal cytotoxic concentration (CC50) at 72 h in data set [2] is above 500 µM.
For `COc1cccc(COP(=O)(CO[C@H](C)Cn2cnc3c(N)ncnc32)N[C@@H](C)C(=O)OC(C)C)c1` (stereo not given in full), in that order: 46.33% and above 500 µM.
As for `CC(C)OC(=O)[C@H](C)NP(=O)(CO[C@H](C)Cn1cnc2c(N)ncnc21)OCc1cccc(Br)c1` (stereo not given in full), the Activity in the data set on Hepatitis B virus [1] amounted to 31.94%. For the same molecule, the cytotoxic concentration (CC50) at 72 h in data set [2] is above 500 µM.
Consider `CC(C)OC(=O)[C@H](C)NP(=O)(CO[C@H](C)Cn1cnc2c(N)ncnc21)OCc1cccc([N+](=O)[O-])c1` (stereo not given in full), for which the Activity in the data set on Hepatitis B virus [1] turned out to be 34.63%. Also, the half-maximal cytotoxic concentration (CC50) at 72 h in data set [2] was above 500 µM.
Consider `CCOC(=O)[C@H](C)NP(=O)(CO[C@H](C)Cn1cnc2c(N)ncnc21)OCc1ccccc1C` (stereo not given in full), for which the Activity in the data set on Hepatitis B virus [1] is recorded as 41.27%. Moreover, the half-maximal cytotoxic concentration (CC50) at 72 h in data set [2] is above 500 µM.
With `CCCCOC(=O)[C@H](C)NP(=O)(CO[C@H](C)Cn1cnc2c(N)ncnc21)OCc1ccccc1C` (stereo not given in full), in the data set with Hepatitis B virus [1], the Activity was 22.62%. Further, in data set [2], the half-maximal cytotoxic concentration (CC50) at 72 h is above 500 µM.
Consider `COc1ccc(COP(=O)(CO[C@H](C)Cn2cnc3c(N)ncnc32)N[C@@H](C)C(=O)OC(C)C)cc1` (stereo not given in full), for which, in the data set on Hepatitis B virus [1], the Activity was 41.64%. In data set [2], the CC50 at 72 h is above 500 µM.
Usually EC50 stands for the concentration at which the effect is half-maximal. In the case of `CC(C)OC(=O)[C@H](C)NP(=O)(CO[C@H](C)Cn1cnc2c(N)ncnc21)OCc1ccc(Cl)cc1` (stereo not given in full), the Activity in the data set with Hepatitis B virus [1] was 67.85%. Moreover, in data set [2], the CC50 at 72 h is above 500 µM. In the data set on Hepatitis B virus [3], the EC50 is 0.145 µM.
As for `CC(C)OC(=O)[C@H](C)NP(=O)(CO[C@H](C)Cn1cnc2c(N)ncnc21)OCc1cccc(C(F)(F)F)c1` (stereo not given in full), the Activity in the data set with Hepatitis B virus [1] was found to be 35.34%. Also, in data set [2], the CC50 at 72 h was above 500 µM.
Take `Cc1ccccc1COP(=O)(CO[C@H](C)Cn1cnc2c(N)ncnc21)N[C@@H](C)C(=O)OC1CCCCC1` (stereo not given in full): the Activity with Hepatitis B virus [1] came to 21.46%. For the same molecule, in data set [2], the CC50 at 72 h was above 500 µM.
With `Cc1ccccc1COP(=O)(CO[C@H](C)Cn1cnc2c(N)ncnc21)NCC(=O)OC(C)C` (stereo not given in full), the half-maximal cytotoxic concentration (CC50) at 72 h in data set [2] is above 500 µM.
On to `Cc1ccccc1COP(=O)(CO[C@H](C)Cn1cnc2c(N)ncnc21)N[C@@H](C)C(=O)OC1CCCC1` (stereo not given in full), for which, in the data set with Hepatitis B virus [1], the Activity was found to be 41.01%. In data set [2], the CC50 at 72 h is above 500 µM.
Take `Cc1ccccc1COP(=O)(CO[C@H](C)Cn1cnc2c(N)ncnc21)N[C@@H](C)C(=O)OC(C)C` (stereo in doubt; 1a-1): the Activity with Hepatitis B virus [1] (144 h, 1 µM) is listed as 62.5%; in the data set with HepG2 it was “Non-Toxic”.
With `Cc1ccccc1COP(=O)(CO[C@H](C)Cn1cnc2c(N)ncnc21)N[C@@H](Cc1ccccc1)C(=O)OC(C)C` (stereo not given in full), in the data set with Hepatitis B virus [1], the Activity stood at 63.8%. Moreover, in data set [2], the CC50 at 72 h is above 500 µM. Moreover, in the data set with Hepatitis B virus [3], the EC50 is 0.49 µM.
On the same counts, the results for `CC(C)OC(=O)[C@H](C)NP(=O)(CO[C@H](C)Cn1cnc2c(N)ncnc21)OCc1ccccc1[N+](=O)[O-]` (stereo not given in full) are 79.74%, above 500 µM and 0.078 µM.
Regarding `CCCOC(=O)[C@H](C)NP(=O)(CO[C@H](C)Cn1cnc2c(N)ncnc21)OCc1ccccc1C` (stereo not given in full), the Activity with Hepatitis B virus [1] stood at 14.35%. In addition, the half-maximal cytotoxic concentration (CC50) at 72 h in data set [2] is above 500 µM.
Regarding `CC(C)OC(=O)[C@H](C)NP(=O)(CO[C@H](C)Cn1cnc2c(N)ncnc21)OCc1ccccc1C(F)(F)F` (stereo not given in full), in the data set on Hepatitis B virus [1], the Activity is 46.76%. In data set [2], the CC50 at 72 h is above 500 µM.
On the same counts, the results for `Cc1ccccc1COP(=O)(CO[C@H](C)Cn1cnc2c(N)ncnc21)N[C@@H](C)C(=O)OCC(C)(C)C` (stereo not given in full) are 35.22% and above 500 µM.
With `CC(C)OC(=O)[C@H](C)NP(=O)(CO[C@H](C)Cn1cnc2c(N)ncnc21)OCc1ccc([N+](=O)[O-])cc1` (stereo not given in full), in the data set on Hepatitis B virus [1], the Activity was 22.15%. Further, the CC50 at 72 h in data set [2] is above 500 µM.
On the same counts, the results for `Cc1ccccc1COP(=O)(CO[C@H](C)Cn1cnc2c(N)ncnc21)N[C@@H](C)C(=O)OCC(C)C` (stereo not given in full) are 25.78% and above 500 µM.
For `CC(C)OC(=O)[C@H](C)NP(=O)(CO[C@H](C)Cn1cnc2c(N)ncnc21)OCc1ccc(F)cc1` (stereo not given in full), in that order: 43.65% and above 500 µM.
Regarding `CC(C)OC(=O)[C@H](C)NP(=O)(CO[C@H](C)Cn1cnc2c(N)ncnc21)OCc1ccccc1F` (stereo not given in full), the Activity in the data set with Hepatitis B virus [1] was determined as 66.36%. The CC50 at 72 h in data set [2] was above 500 µM. In the data set with Hepatitis B virus [3], the half-maximal effective concentration (EC50) turned out to be 0.029 µM.
For the molecule `Cc1cccc(COP(=O)(CO[C@H](C)Cn2cnc3c(N)ncnc32)N[C@@H](C)C(=O)OC(C)C)c1` (stereo not given in full), the Activity in the data set with Hepatitis B virus [1] stood at 69.34%. Besides, the CC50 at 72 h in data set [2] was above 500 µM. Further, the EC50 in the data set with Hepatitis B virus [3] stood at 0.181 µM.
Turning to `CC(C)OC(=O)[C@H](C)NP(=O)(CO[C@H](C)Cn1cnc2c(N)ncnc21)OCc1cccc(F)c1` (stereo not given in full), the Activity in the data set on Hepatitis B virus [1] was 68.11%. Further, the CC50 at 72 h in data set [2] is above 500 µM. In the data set on Hepatitis B virus [3], the concentration giving a half-maximal response (EC50) was found to be 0.027 µM.
Consider `CC(C)OC(=O)[C@H](C)NP(=O)(CO[C@H](C)Cn1cnc2c(N)ncnc21)OCc1ccc(Br)cc1` (stereo not given in full), for which, in data set [2], the CC50 at 72 h is above 500 µM.
Regarding `COc1ccccc1COP(=O)(CO[C@H](C)Cn1cnc2c(N)ncnc21)N[C@@H](C)C(=O)OC(C)C` (stereo not given in full), in the data set with Hepatitis B virus [1], the Activity turned out to be 53.33%. In addition, the half-maximal cytotoxic concentration (CC50) at 72 h in data set [2] was above 500 µM.
For the molecule `Cc1ccccc1COP(=O)(CO[C@H](C)Cn1cnc2c(N)ncnc21)N[C@@H](C)C(=O)OC(C)C` (stereo in doubt; 1a-2), the Activity in the data set with Hepatitis B virus [1] (144 h, 1 µM) was 85.4%.
`Cc1ccc(COP(=O)(CO[C@H](C)Cn2cnc3c(N)ncnc32)N[C@@H](C)C(=O)OC(C)C)cc1` (stereo not given in full): the Activity with Hepatitis B virus [1] amounted to 65.32%. For the same molecule, the CC50 at 72 h in data set [2] was above 500 µM. Besides, the half-maximal effective concentration (EC50) in the data set with Hepatitis B virus [3] came out at 0.186 µM.
On to `Nc1ccn([C@@H]2CS[C@H](CO)O2)c(=O)n1` [LAMIVUDINE], for which, in data set [2], the half-maximal cytotoxic concentration (CC50) at 72 h is above 500 µM. For the same molecule, in the data set on Hepatitis B virus [4], the Activity turned out to be 77.32%.
Regarding `COC(=O)[C@H](C)NP(=O)(CO[C@H](C)Cn1cnc2c(N)ncnc21)OCc1ccccc1C` (stereo not given in full), the Activity in the data set with Hepatitis B virus [1] was found to be 65.23%. Moreover, the CC50 at 72 h in data set [2] is above 500 µM. Moreover, the EC50 with Hepatitis B virus [3] was found to be 0.618 µM.
For `COC(=O)C[C@H](NP(=O)(CO[C@H](C)Cn1cnc2c(N)ncnc21)OCc1ccccc1C)C(=O)OC` (stereo not given in full), in that order: 69.01%, above 500 µM and 0.827 µM.
For `CC(C)OC(=O)[C@H](C)NP(=O)(CO[C@H](C)Cn1cnc2c(N)ncnc21)OCc1cccc(Cl)c1` (stereo not given in full), in that order: 73.95%, above 500 µM and 0.047 µM.
Take `CC(C)OC(=O)[C@H](C)NP(=O)(CO[C@H](C)Cn1cnc2c(N)ncnc21)OCc1ccc(C(F)(F)F)cc1` (stereo not given in full): in the data set on Hepatitis B virus [1], the Activity stood at 63.45%. The CC50 at 72 h in data set [2] is above 500 µM. Further, the concentration giving a half-maximal response (EC50) in the data set with Hepatitis B virus [3] came out at 0.147 µM.
As for `Cc1ccccc1COP(=O)(CO[C@H](C)Cn1cnc2c(N)ncnc21)N[C@@H](C)C(=O)OC(C)C` (stereo in doubt; 1a), the Activity result in the data set with Hepatitis B virus [5] is “Dde”.
`CC(C)OC(=O)[C@H](C)NP(=O)(CO[C@H](C)Cn1cnc2c(N)ncnc21)OCc1ccccc1Br` (stereo not given in full): the Activity with Hepatitis B virus [1] stood at 80.75%. In addition, in data set [2], the CC50 at 72 h was 490 µM. In addition, the EC50 in the data set on Hepatitis B virus [3] was found to be 0.052 µM.
`CC(C)OC(=O)[C@H](C)NP(=O)(CO[C@H](C)Cn1cnc2c(N)ncnc21)OCc1ccccc1Cl` (stereo not given in full): the Activity in the data set with Hepatitis B virus [1] came out at 42.6%. In addition, the 50% cytotoxic concentration (CC50) at 72 h in data set [2] is above 500 µM.
